{
  "source": "patent US10905703B2",
  "about": "“Preparation of a composition containing stilbene glycoside” (priority 2015, dated 2021)",
  "key": {"[1]": {"conditions": "cited from earlier work"}, "female KK CgAy/J mice": {"test_system": "female KK CgAy/J mice", "experiment": "Anti-diabetic effect of stilbene glycoside in female KK CgAy/J mice incl. glucose and insulin tolerance tests", "type": "in vivo", "conditions": "for blood / serum glucose level vs diabetic control: stilbene glycoside 0.075% in drinking water, metformin 300 mg/kg; for insulin tolerance test: level of glucose: 30 minutes after insulin injection", "source_text": "Female KK CgAy/J mice were also utilized in this experiment and handled with the same protocol as in 1.2.3. The mice were divided into four groups with 10 each, and fed with Western HFD. […] Body weight, food and water uptake of the mice were taken on a regular basis. After 12 weeks, all the experimental mice were sacrificed. Similar measurements were taken to the previous experiment with PM extract. Before sacrifice, all the experimental mice were subjected to glucose and insulin tolerance tests. For glucose tolerance test, mice were fasted overnight and injected with glucose solution at 1 g/10 ml and 10 ml/kg body weight. The change in blood glucose level was monitored during the following two hours. For insulin tolerance test, mice were fasted for 5 hours and injected with insulin solution at 1 u/ml and 10 ml/kg body weight. The change in blood glucose level was monitored during the following two hours."}, "[2]": {"conditions": "compared with resveratrol; cited from earlier work"}, "[3]": {"conditions": "rats, cited from earlier work"}, "male CF-1 mice": {"test_system": "male CF-1 mice", "experiment": "Animal study with pure trans- and cis-stilbene glycoside in high fat diet induced male CF-1 mice", "type": "in vivo", "conditions": "for GTT: rise in blood glucose level / effect on glucose intolerance / serum insulin levels / serum glucose level: 0.01% in drinking water; for GTT: rise in blood glucose level / effect on glucose intolerance / serum insulin levels: HFD 12 weeks; for GTT: rise in blood glucose level / effect on glucose intolerance: intraperitoneal glucose; for serum insulin levels: vs HF group; for serum glucose level: HFD for 12 weeks, FIG. 12", "source_text": "Male CF-1 mice were selected as the model for type 2 diabetes. The mice were kept on Western HFD for 12 weeks and were divided into five groups with 10 each. Group I: Normal control which had free access to drinking water and normal Chow; Group II: Diabetic control which had free access to drinking water and Western HFD; Group III: Treatment group which had free access to drinking water with 0.01% of pure trans-stilbene glycoside and HFD; Group IV: Treatment group which had free access to drinking water with 0.01% of pure cis-stilbene glycoside and Western HFD. Group V: […] Body weight, food and water uptake of the mice were taken on a regular basis. After 12 weeks, all the experimental mice were sacrificed. Body weight, blood glucose and blood insulin levels were evaluated as described before. Glucose tolerance test was also carried out at the end of the study."}, "[4]": {"test_system": "phosphoenolpyruvate carboxykinase (PEPCK) mRNA expression", "experiment": "PEPCK assay (qPCR of Dex-cAMP induced PEPCK mRNA) in HepG2 cells", "type": "cell-based", "conditions": "for concentration dependence of PEPCK suppression: 30 μM vs 100 μM; for reduction of PEPCK mRNA compared to Dex/cAMP group: comparative Ct method; for suppression of Dex/cAMP-induced up-regulation of PEPCK transcription: normalized with β-actin, FIG. 13A", "experimental": "The HepG2 cells were plated in 24-well tissue culture plates and were grown to near confluence in Dulbecco's modified Eagle's medium containing 2.5% (vol/vol) newborn calf serum and 2.5% (vol/vol) fetal calf serum. […]\nTotal RNA was extracted from HepG2 cells using Trizol reagent, following the manufacturer's instructions. RNA was quantified spectrophotometrically by absorbance measurements at 260 and 280 nm. Quality of RNA was assessed by separation in gel electrophoresis. RNA was then treated with Dnasel (Invitrogen), following the manufacturer's guidelines, to remove any traces of DNA contamination. The cDNAs were synthesized with […] of RNA for each sample, using Stratascript reverse transcriptase (Stratagene, La Jolla, Calif.), following the manufacturer's protocol. The synthesized cDNAs were diluted fourfold. Five microliters of each of these diluted samples was used for PCR reactions of 25 ηL final volume. The other components of the PCR reactions were 0.5 ηL of 6 ηM gene-specific primers and 12.5 ηL of Brilliant SYBR Green PCR master mix (containing green jump-start Taq ready mix). ROX (Stratagene, La Jolla, Calif.) was used as a reference dye. The primers were selected using the Primer Express version 2.0 software (Applied Biosystems, Foster City, Calif.). These primers generated a 76-bp product from β-actin mRNA. The intron-spanning forward primer was selected to cover the exon 9-10 boundary. The reverse primer was selected from exon 10. The oligos were synthesized by IDT. These primers generated a 74-bp product from PEPCK mRNA and a 207-bp product from genomic DNA.\nQuantitative PCR (qPCR) amplifications were performed on an MX3000p system (Stratagene, La Jolla, Calif.) using one cycle at 50° C. for 2 min and one cycle of 95° C. for 10 min, followed by 40 cycles of 15 s at 95° C. and 1 min at 60° C. The dissociation curve was completed with one cycle of 1 min at 95° C., 30 s at 55° C., and 30 s at 95° C. Non-RT control and no-template control were included in each experiment as quality control steps.\nPEPCK mRNA expressions were analyzed using the ΔΔCT method and normalized with respect to the expression of the β-actin house keeping gene. The ΔΔCT Values obtained from these methods reflect the relative mRNA quantities for a specific gene in response to a treatment as relative to a calibrator. The Dex-cAMP treatment (positive control) served as the calibrator sample in this study. The PECPK gene expression of the calibrator sample was assigned to a value of 1.0. A value of <1.0 indicates transcriptional down-regulation (inhibition of gene expression) relative to the calibrator. Amplification of specific transcripts was further confirmed by obtaining melting curve profiles. All samples were run in duplicate."}, "female KK mice": {"test_system": "female KK mice", "experiment": "Animal study with trans- and cis-stilbene glycoside extracts in HFD-induced female KK mice", "type": "in vivo", "conditions": "18 weeks HFD, solutions in drinking water", "experimental": "Female KK mice were purchased from Jackson labs (Barr Harbor, Me.) and were housed in stainless steel wire-bottomed cages and acclimatized under laboratory conditions (19-23° C., humidity 60%, 12 h light/dark cycle). Normal control mice (n=10) were fed with control diet which was normal Chow 5001 from LabDiet (St. Louis, Mo.) and was composed of 28.5 kcal % protein, 58 kcal % carbohydrate and 13.5 kcal % fat. Diabetic control mice (n=10) were induced with HFD (Research Diets, New Brunswick, N.J.) composed of 20 kcal % protein, 20 kcal % carbohydrate, and 60 kcal % fat (from butter) for 18 weeks. Three solutions were administered to mice (n=10 each) on HFD ad libitum and the compositions are shown below. Solution 1: pure trans-stilbene glycoside (0.05% in drinking water), HPLC chromatogram in FIG. 3.2 (A); Solution 2: 60% ethanol extract of PM root powders, obtained according to procedure in Section 1.2.1 (proportion of cis-stilbene glycoside to trans-stilbene glycoside is approximately 1:20, 0.075% in drinking water), HPLC chromatogram in FIG. 3.2 (B); Solutions 3: obtained from exposing solution 2 under UV-light overnight (proportion of cis-stilbene glycoside to trans-stilbene glycoside is approximately 2:3, 0.075% in drinking water), HPLC chromatogram in FIG. 3.2 (C). After 18 weeks, body weight and blood glucose of all mice were measured."}},
  "data": [
    {"smiles": "OC[C@H]1O[C@@H](Oc2c(O)cc(O)cc2/C=C/c2ccc(O)cc2)[C@H](O)[C@@H](O)[C@@H]1O", "note": "[stilbene glycoside, 2,3,5,4-tetrahydroxystilbene 2-O-β-glucopyranoside]", "values": [
      {"measurement": "solubility", "setting": "[1]", "value": "soluble in water, methanol and ethanol"},
      {"measurement": "serum insulin level vs diabetic control", "setting": "female KK CgAy/J mice; 12 weeks HFD, 0.075% in drinking water, FIG. 6", "value": "elevated"},
      {"measurement": "blood / serum glucose level vs diabetic control", "setting": "female KK CgAy/J mice; 12 weeks HFD, FIG. 6", "value": "elevated"},
      {"measurement": "glucose tolerance test: blood glucose level", "setting": "female KK CgAy/J mice; 30 minutes after glucose injection (1 g/kg), FIG. 7A", "value": "the most elevated"},
      {"measurement": "insulin tolerance test: level of glucose", "setting": "female KK CgAy/J mice; FIG. 7B", "value": "higher level of glucose"},
      {"measurement": "glucose tolerance test: blood glucose", "setting": "female KK CgAy/J mice; at the end of the test (two hours), FIG. 7A", "value": "remained much higher than normal control and metformin groups"},
      {"measurement": "glucose tolerance", "setting": "female KK CgAy/J mice; overall finding of glucose tolerance test", "value": "glucose intolerant"},
      {"measurement": "antioxidant activity", "setting": "[2]", "value": "higher antioxidant activity than resveratrol"},
      {"measurement": "time of distribution", "setting": "[3]; single intravenous or oral administration", "value": "≤ 30", "unit": "min"},
      {"measurement": "Total recovery of unchanged stilbene glycoside in bile", "setting": "[3]; within 24 hr", "value": 0.041, "unit": "%"},
      {"measurement": "Total recovery of unchanged stilbene glycoside in feces", "setting": "[3]; within 24 hr", "value": 0.06, "unit": "%"},
      {"measurement": "amount of unchanged stilbene glycoside excreted in the urine", "setting": "[3]; within 24 hr", "value": "lower than Lower Limit of Quantification (LLOQ)"},
      {"measurement": "Absolute bioavailability", "setting": "[3]", "value": 40, "unit": "%"},
      {"measurement": "form of excretion", "setting": "[3]; metabolites including monoglucuronide and the deglycosidated form", "value": "excreted mainly in the forms of metabolites"}
    ]},
    {"smiles": "OC[C@H]1O[C@@H](Oc2c(O)cc(O)cc2/C=C/c2ccc(O)cc2)[C@H](O)[C@@H](O)[C@@H]1O", "note": "[trans-stilbene glycoside, 2,3,5,4-tetrahydroxystilbene 2-O-β-glucopyranoside]", "values": [
      {"measurement": "GTT: rise in blood glucose level / effect on glucose intolerance", "setting": "male CF-1 mice", "value": "absent"},
      {"measurement": "serum insulin levels", "setting": "male CF-1 mice", "value": "significantly lowered"},
      {"measurement": "serum glucose level", "setting": "male CF-1 mice", "value": "significantly decrease"},
      {"measurement": "concentration dependence of PEPCK suppression", "setting": "[4]", "value": "higher concentration resulted in lower level of PEPCK transcription"},
      {"measurement": "reduction of PEPCK mRNA compared to Dex/cAMP group", "setting": "[4]; 100 μM", "value": 53.3, "unit": "%"},
      {"measurement": "suppression of Dex/cAMP-induced up-regulation of PEPCK transcription", "setting": "[4]", "value": "effectively suppress"},
      {"measurement": "high fat induced body weight gain compared to diabetic control", "setting": "female KK mice", "value": "none of the three solutions significantly decreased"}
    ]},
    {"smiles": "Cn1c(=O)c2c(ncn2C)n(C)c1=O", "note": "[caffeine, reference compound]", "values": [
      {"measurement": "serum glucose level", "setting": "male CF-1 mice", "value": "significantly decrease"}
    ]},
    {"smiles": "CN(C)C(=N)N=C(N)N", "note": "[metformin, reference compound]", "values": [
      {"measurement": "blood / serum glucose level vs diabetic control", "setting": "female KK CgAy/J mice; 12 weeks HFD, FIG. 6", "value": "effectively brought down"},
      {"measurement": "insulin tolerance test: level of glucose", "setting": "female KK CgAy/J mice; FIG. 7B", "value": "higher level of glucose"},
      {"measurement": "insulin tolerance test: blood glucose", "setting": "female KK CgAy/J mice; two hours after insulin injection, FIG. 7B", "value": "dropped to a lower level than that of stilbene glycoside group"}
    ]},
    {"smiles": "OC[C@H]1O[C@@H](Oc2c(O)cc(O)cc2/C=C/c2ccc(O)cc2)[C@H](O)[C@@H](O)[C@@H]1O", "note": "[cis-stilbene glycoside, 2,3,5,4-tetrahydroxystilbene 2-O-β-glucopyranoside]", "values": [
      {"measurement": "GTT: rise in blood glucose level / effect on glucose intolerance", "setting": "male CF-1 mice", "value": "greatly suppressed"},
      {"measurement": "serum insulin levels", "setting": "male CF-1 mice", "value": "significantly lowered"},
      {"measurement": "serum glucose level", "setting": "male CF-1 mice", "value": "significantly decrease"},
      {"measurement": "Calculated HOMA-IR lower than that in trans-stilbene glycoside group", "setting": "male CF-1 mice; cis group relative to trans group", "value": 102.7, "unit": "%"},
      {"measurement": "concentration dependence of PEPCK suppression", "setting": "[4]", "value": "suppressed more efficiently at 30 μM than at 100 μM"},
      {"measurement": "reduction of PEPCK mRNA compared to Dex/cAMP group", "setting": "[4]; 30 μM", "value": 61.7, "unit": "%"},
      {"measurement": "suppression of Dex/cAMP-induced up-regulation of PEPCK transcription", "setting": "[4]", "value": "effectively suppress"}
    ]}
  ]
}
